Reference: patent US20240124556A1, “KERATIN BD-3, PREPARATION METHOD THEREFOR AND PHARMACEUTICAL COMPOSITION AND USE THEREOF” (INSTITUTE OF MATERIA MEDICA, CHINESE ACADEMY OF MEDICAL …, priority 2019, published 2024)
Structures can show the parent of a compound that is named as a salt.

Tested on: phenol red excretion in mice
Experiment: Expectorant test, phenol red excretion method in mice
Assay type: in vivo, ICR mice
Experimental: • Animals: male ICR mice; • Drugs and reagents: Mucosolvan (ambroxol hydrochloride tablets), phenol red, sodium bicarbonate, protein BD-3; • Instruments: centrifuge (Sigma-3K15 type), balance (XS105DU type), Microplate tester (BIO-TEK type). • Experiment Grouping: • Solvent control group; • Mucosolvan 30 mg/kg group; • Protein BD-3, 20 mg/kg group, 50 mg/kg group.
The animals were fasted and water was taken freely 16 hours before the experiment. Orally administered Mucosolvan and different doses of protein BD-3 (administration volume 10 ml/kg) in groups, and the solvent control group was given the same volume of distilled water. One hour later, 2.5% phenol red solution was injected intraperitoneally. Mice were sacrificed by neck dislocation after 30 minutes. […] Measure and record the absorbance at 546 nm. According to the standard curve of phenol red, the excretion of phenol red was calculated.
Record the time point of oral administration, the time point of intraperitoneal injection of 2.5% phenol red solution, and the time point of taking the trachea respectively; The absorbance of each group of samples was measured by the microplate reader at 546 nm, Calculate the excretion of phenol red according to the standard curve of phenol red. […]

With `Nc1c(Br)cc(Br)cc1CN[C@H]1CC[C@H](O)CC1` [Mucosolvan, ambroxol hydrochloride, reference compound] as the compound, how does the Phenol red excretion (Mucosolvan 30 mg/kg oral, X ± SEM, solvent control 0.506 ± 0.040) read?
Its Phenol red excretion is 1.061 ± 0.117 µg/mL.

And the “Amount of phenol red excretion vs solvent control (in words)” value (Mucosolvan 30 mg/kg, P<0.05)?
Its value is “significantly increased”.
